Measurements from patent publication US6448431B1, “Production of aryl carboxylate esters” (priority 1999, dated 2002).

Experiments:
[1] = cited from earlier work
[2] = Solubility of NOBS in selected solvents; format: physicochemical; settings: 23° C., grams of NOBS soluble in 100 grams of solution
From the text: The solvent properties of TFA are unique and highly advantageous in the synthesis of phenolsulfonate esters. […] It is notable that the only solvent in which NOBS is more soluble than water is TFA. I have found no better solvent for NOBS than TFA. This is surprising. […] It is likely that hydrogen bonding in TFA facilitates the solvation of sulfonate anions but it is notable, in contrast, that such effects are much weaker in acetic acid. Furthermore, while it is known in the art that dimethyl sulfoxide (DMSO) and dimethylformamide (DMF) are relatively good solvents for benzenesulfonate esters they are much weaker solvents than TFA and because TFA has a much lower boiling point than these dipolar aprotic solvents it is the only good solvent for benzenesulfonate esters which can be readily stripped from product solutions and then purified and recycled with relative ease.

| Solubility of NOBS, wt % NOBS ([2]; solvent DMF) [wt %] | Solubility of NOBS, wt % NOBS ([2]; solvent DMSO) [wt %] | Solubility of NOBS, wt % NOBS ([2]; solvent NMP) [wt %] | Solubility of NOBS, wt % NOBS ([2]; solvent TFA) [wt %] | Solubility of NOBS, wt % NOBS ([2]; solvent acetic acid) [wt %] | Solubility of NOBS, wt % NOBS ([2]; solvent acetone) [wt %] | Solubility of NOBS, wt % NOBS ([2]; solvent acetonitrile) [wt %] | Solubility of NOBS, wt % NOBS ([2]; solvent nonanoic acid) [wt %] | Solubility of NOBS, wt % NOBS ([2]; solvent water) [wt %] | SMILES | Aqueous pKa [1] |
| --- | --- | --- | --- | --- | --- | --- | --- | --- | --- | --- |
| – | – | – | – | – | – | – | – | – | O=C(O)C(F)(F)F [CF3CO2H, trifluoroacetic acid] | 0.22 |
| 10.1 | 15.9 | 8.4 | 23.4 | 1.7 | 0.02 | 0.01 | 0.03 | 22.8 | CCCCCCCCC(=O)Oc1ccc(S(=O)(=O)[O-])cc1.[Na+] [NOBS, sodium 4-(nonanoyloxy)benzenesulfonate] | – |
